# Measurements reported in PMC8557474, “Reliability of the AR-CALUX®In Vitro Method Used to Detect Chemicals with (Anti)Androgen Activity: Results of an International Ring Trial” (Toxicological Sciences, 2021).
# Legend:
# [1] = tested on: androgen receptor; parameters: method as in Kleinstreuer et al., 2017; conditions: ref Kleinstreuer et al., 2017; cited from earlier work
# [2] = tested on: AR-CALUX cell line (U2-OS); experiment: Cytotoxicity in the AR-CALUX assay (LDH leakage and visual inspection); type: cell-based, human; conditions: agonist assay
# Method: (§1) Each test chemical was firstly tested at the highest soluble concentration, starting from 50 mg/ml. Subsequently, the test chemical was assessed with a prescreen run (dilution steps of 10) and simultaneously with the quantitative cytotoxicity test to determine (1) cytotoxic concentrations, (2) the response, and (3) the appropriate dose range to be tested. […] The cytotoxicity test was performed once more. Test chemicals were diluted in media and consisted of 8 serial dilutions. Each dilution was tested in triplicate.
# Cytotoxicity was evaluated in both the agonist and antagonist assay and was carried out with the LDH test which can be performed in parallel to the agonist/antagonist assay and for which no extra plates have to be prepared. A drawback of this test is that the measurement will occur when leakage happens, ie, when the cell wall is degrading and thus the cell is dead. Early events in the onset of cell death cannot be measured with this test. For this reason, the AR-CALUX® method stated that the cytotoxicity of the exposed cells should also be assessed visually (microscopy).
# [3] = tested on: androgen receptor; conditions: ref OECD, 2020b; cited from earlier work
# [4] = tested on: androgen receptor; parameters: method as in Park et al., 2021; conditions: ref Park et al., 2021; cited from earlier work
# [5] = tested on: androgen receptor; parameters: method as in Park et al., 2021; conditions: ref Park et al., 2021; cited from earlier work; remark: listed apart in the source
# [6] = target: T1, human androgen receptor (hAR) (Homo sapiens, UniProt P10275); experiment: cell-based; type: cell-based; conditions: for Agonist classification per run, Lab 1: Lab 1, 3 runs; for Agonist classification per run, Lab 2: Lab 2, 3 runs; for Agonist classification per run, Lab 3: Lab 3, 3 runs; for Agonist classification per run, Lab 4: Lab 4, 3 runs
# T1 construct: host or cells: U2-OS human osteosarcoma cells (ATCC HTB 96), stably transfected (AR-CALUX cell line)
# T1 sequence (P10275 1-920): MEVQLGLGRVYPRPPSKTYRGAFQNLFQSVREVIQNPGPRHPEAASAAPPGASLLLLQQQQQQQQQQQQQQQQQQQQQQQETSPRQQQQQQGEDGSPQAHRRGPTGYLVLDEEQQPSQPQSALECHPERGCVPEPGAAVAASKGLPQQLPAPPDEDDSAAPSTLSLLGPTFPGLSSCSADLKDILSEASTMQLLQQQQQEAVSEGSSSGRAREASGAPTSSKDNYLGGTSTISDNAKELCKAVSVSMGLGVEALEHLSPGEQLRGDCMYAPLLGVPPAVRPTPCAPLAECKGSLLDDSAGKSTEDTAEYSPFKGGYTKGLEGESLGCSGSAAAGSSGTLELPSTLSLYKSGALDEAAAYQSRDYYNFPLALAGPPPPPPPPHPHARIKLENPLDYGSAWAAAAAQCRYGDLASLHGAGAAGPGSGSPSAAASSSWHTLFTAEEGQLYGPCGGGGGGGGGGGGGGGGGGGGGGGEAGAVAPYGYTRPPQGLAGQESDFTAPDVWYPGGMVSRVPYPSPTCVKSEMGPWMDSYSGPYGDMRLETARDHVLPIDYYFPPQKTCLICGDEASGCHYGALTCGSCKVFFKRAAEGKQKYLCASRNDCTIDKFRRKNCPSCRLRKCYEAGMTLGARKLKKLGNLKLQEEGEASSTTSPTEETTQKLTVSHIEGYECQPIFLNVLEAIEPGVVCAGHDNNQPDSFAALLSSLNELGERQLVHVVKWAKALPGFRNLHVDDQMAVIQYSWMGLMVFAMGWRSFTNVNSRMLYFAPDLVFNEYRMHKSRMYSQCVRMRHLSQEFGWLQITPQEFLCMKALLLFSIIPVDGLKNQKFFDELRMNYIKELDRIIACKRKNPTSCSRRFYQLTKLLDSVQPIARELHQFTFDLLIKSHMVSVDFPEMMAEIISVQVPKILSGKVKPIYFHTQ
# Excerpt: (§2) The AR-CALUX® cell line was created by BioDetection Systems (BDS). It can be purchased from BDS with a license (https://www.biodetectionsystems.com). The human osteosarcoma cell line U2-OS (ATCC HTB 96) was transfected with 2 constructs: pSG5-neo-hAR carrying the cDNA of a human androgen receptor (hAR) under a constitutive promoter, and, a luciferase reporter gene which is preceded by a triple tandem of AREs in front of a TATA box (3x ARE Luc). […] The AR-CALUX® cell line was obtained from the test method developer BDS. EURL ECVAM prepared a master cell bank and a large working cell bank which were tested for the absence of mycoplasma, bacteria, fungi, and yeast and for the absence of Hepatitis B and C and HIV. In addition, to verifying the authenticity of the cell line, Short Tandem Repeat (STR) profiling was carried out to confirm the test system to be U2-OS cells. […] The laboratories were requested, at the end of each part of the study (Parts 1, 2, and 3), to perform a mycoplasma test of their choice. Additional aliquots were sent to EURL ECVAM for a reanalysis of authenticity.
# as §1, with “Subsequently,” for “Each test chemical was firstly tested at the highest soluble concentration, starting from 50 mg/ml. Subsequently,”
# (§3) Each experiment (run) was comprised of a maximum of 6 plates. The first plate would contain 8 serial dilutions of the reference chemical DHT (for agonism) or Flutamide (for antagonism), while the positive and negative controls were added at fixed concentrations. In addition, a solvent control was added (medium without the chemical but with DMSO 0.1%).
# A. Positive when the relative induction (Yc) of the test item is ≥ 10% (REF RPC10) for two or more consecutive concentrations.
# [7] = target: T1, human androgen receptor (hAR); experiment: AR-CALUX antagonist assay (medium spiked with DHT at EC50); type: cell-based; conditions: for Antagonist classification per run, Lab 1: Lab 1, 3 runs; for Antagonist classification per run, Lab 2: Lab 2, 3 runs; for Antagonist classification per run, Lab 3: Lab 3, 3 runs; for Antagonist classification per run, Lab 4: Lab 4, 3 runs
# Excerpt: as §2
# as §1, with “Subsequently,” for “Each test chemical was firstly tested at the highest soluble concentration, starting from 50 mg/ml. Subsequently,”
# as §3
# For the antagonist assay, the medium was supplemented with DHT at EC50 concentration (standard assay). […] Each antagonist assay was accompanied by a specificity control test carried out on the same plate.
# A. Positive (competitive antagonist) when the relative induction (Yc) of the test item is ≤ 80% (REF RPC80) for two or more consecutive concentrations and […]
# [8] = physchem
# Method: It details the cell cultivation and seeding procedure, the preparation of the reference, control and test chemicals, the procedure for agonist testing and antagonist testing, prescreen runs, and comprehensive runs, as well as data analysis and data interpretation. This SOP also includes references to the SOPs for solubility testing and cytotoxicity testing. […] Solubility was tested both in the solvent and in media under similar circumstances as would be required during the (ant)agonist testing. The initial concentration to be tested was prescribed at 50 mg/ml. Starting from the highest soluble concentration, cytotoxicity was determined with an LDH assay. Visual checking of cytotoxicity in all wells of the plate was however also required for each run.
# This included an investigation by heating, centrifugation, microscopy, and visual checking. […] For the purpose of the validation study, the labs were requested to start from 50 mg/ml as the maximal stock concentration to be tested.
Compound,AR-EcoScreen agonist result in words [3],22Rv1/MMTV/GR-KO TA agonist result in words [5],"Agonist classification per run, Lab 1 [6]","Agonist classification per run, Lab 2 [6]","Agonist classification per run, Lab 3 [6]","Agonist classification per run, Lab 4 [6]","Antagonist classification per run, Lab 1 [7]","Antagonist classification per run, Lab 2 [7]","Antagonist classification per run, Lab 3 [7]","Antagonist classification per run, Lab 4 [7]",other results
CC(=O)O[C@]1(C(C)=O)CC[C@H]2[C@@H]3C=C(Cl)C4=CC(=O)[C@@H]5C[C@@H]5[C@]4(C)[C@H]3CC[C@@]21C [Cyproterone acetate],–,–,–,–,–,–,–,–,–,–,AR-Reference list agonist result in words [1]: weak positive; highest nontoxic concentration [2]: 3 µM
C[C@]12CC[C@@H]3c4ccc(O)cc4CC[C@H]3[C@@H]1CC[C@@H]2O [17β-Estradiol],AR agonist activity,AR agonist activity,–,–,–,–,–,–,–,–,22Rv1/MMTV/GR-KO TA antagonist result in words [4]: AR antagonist response
C#C[C@]1(O)CC[C@H]2[C@@H]3CCc4cc(O)ccc4[C@H]3CC[C@@]21C [17α-Ethynyl estradiol],negative,positive,–,–,–,–,–,–,–,–,–
CC(C)(c1ccc(O)cc1)c1ccc(O)cc1 [Bisphenol A],–,–,N N N,N N N,N N N,N N N,P P P,P P P,P P P,P P P,"IC50 ([7]; logIC50 averaged over 4 labs, 3 valid runs per lab, read-out: Antagonist Overall logIC50 (converted)): 1380 nM; solubility ([8]; aqueous buffer, kinetic from dmso stock, Solubility in medium, Lab 1): 15 µg/mL; solubility ([8]; aqueous buffer, kinetic from dmso stock, Solubility in medium, Lab 2): > 50 µg/mL; solubility ([8]; aqueous buffer, kinetic from dmso stock, Solubility in medium, Lab 3): > 50 µg/mL; solubility ([8]; aqueous buffer, kinetic from dmso stock, Solubility in medium, Lab 4): > 50 µg/mL; solubility ([8]; organic solvent or mixture, thermodynamic from solid, Solubility in DMSO, Lab 1): > 50000 µg/mL; solubility ([8]; organic solvent or mixture, thermodynamic from solid, Solubility in DMSO, Lab 2): > 50000 µg/mL; solubility ([8]; organic solvent or mixture, thermodynamic from solid, Solubility in DMSO, Lab 3): > 50000 µg/mL; solubility ([8]; organic solvent or mixture, thermodynamic from solid, Solubility in DMSO, Lab 4): > 50000 µg/mL"
CCN(CC)C(=S)SSC(=S)N(CC)CC [Disulfiram],–,–,N N N,N N N,N N N,N N N,N N N,N N N,N N N,N N N,"solubility ([8]; aqueous buffer, kinetic from dmso stock, Solubility in medium, Lab 1, assay medium, Lab 1): 5 µg/mL; solubility ([8]; aqueous buffer, kinetic from dmso stock, Solubility in medium, Lab 2, assay medium, Lab 2): 15 µg/mL; solubility ([8]; aqueous buffer, kinetic from dmso stock, Solubility in medium, Lab 3, assay medium, Lab 3): 15 µg/mL; solubility ([8]; aqueous buffer, kinetic from dmso stock, Solubility in medium, Lab 4, assay medium, Lab 4): 15 µg/mL; solubility ([8]; organic solvent or mixture, thermodynamic from solid, Solubility in DMSO, Lab 1, DMSO, Lab 1, highest tested 50 mg/ml): > 50000 µg/mL; solubility ([8]; organic solvent or mixture, thermodynamic from solid, Solubility in DMSO, Lab 2, DMSO, Lab 2, highest tested 50 mg/ml): > 50000 µg/mL; solubility ([8]; organic solvent or mixture, thermodynamic from solid, Solubility in DMSO, Lab 3, DMSO, Lab 3, highest tested 50 mg/ml): > 50000 µg/mL; solubility ([8]; organic solvent or mixture, thermodynamic from solid, Solubility in DMSO, Lab 4, DMSO, Lab 4, highest tested 50 mg/ml): > 50000 µg/mL"
